Data from article PMC11219871, “Epigenetic-based differentiation therapy for Acute Myeloid Leukemia” (Nature Communications, 2024).
Where “and” joins values, the source holds several entries; their conditions need not be identical. Equal values may be shown once. Read-outs that look alike come from different tables or passages of the source.

What was measured:
Assay type in all cases: cell-based, human
[1] = tested on: MOLM-13; test: Differentiation-apoptosis assay, CD11b / annexin-V / Sytox Green / myeloid markers flow cytometry; set-up: Cell viability (%): concentration or dose not given beside the values; CD11b levels: unit not given here; conditions: for CD11b (%) / Cell viability (%): MOLM-13, 48 h treatment, replicates 1-3 (Suppl. Fig. 5A)
Method: (§1) Next, the cells were washed twice with phosphate-buffered saline (PBS) and resuspended in 1X Binding Buffer at a concentration of 1 × 10^6 cells/mL. An 8-µL aliquot of APC-CD11b (BD Pharmingen, Franklin Lakes, NJ, USA) and 1 µL of FITC annexin-V (AV) (BD Pharmingen, Franklin Lakes, NJ, USA) antibodies were added and incubated for 15 min at room temperature in the dark. Finally, after the addition of 400 µL of 1X Binding Buffer to each tube, samples were collected on a BD FACSCanto flow cytometer (Becton Dickinson, San Jose, CA, USA) and analyzed using FlowJo software.
(§2) For the rest of experiments, the mix of antibodies (2 µL of BV786-CD13, Cat No, 744748 BD; 1 µL of diluted 1:10 antibody of PB-HLADR, Cat No 307633, Biolegend; 5 µL of APCH7-CD14, Cat No 641394, BD) was added to 10 µL of Brilliant Stain Buffer Plus (Becton Dickinson, San Jose, CA, USA). Then, 1 million cells (volume of 250 µL) were added and incubated for 30 min at room temperature in darkness. After 10 min incubation at room temperature with 2 mL of FACSLysing 1X, cells were centrifuged at 540 g for 5 min and washed twice with FACSBuffer. Finally, after centrifugation at 540 g for 5 min cells were resuspended in FACSBuffer.

[2] = tested on: MV4-11; test: as above; set-up: Cell viability (%): concentration or dose not given beside the values; CD11b levels: unit not given here; conditions: for CD11b (%) / Cell viability (%): MV4-11, 48 h treatment, replicates 1-3 (Suppl. Fig. 5A)
Method: as §1, §2

[3] = tested on: MOLM-13; test: Cell proliferation assay: GI50
Method: (§3) Cell proliferation was analyzed using the CellTiter 96 Aqueous One Solution Cell Proliferation Assay (Promega, Madison, WI). This is a colorimetric method for determining the number of viable cells in proliferation. For the assay, suspension cells were cultured in triplicate at a density of 1 × 10^6 cells/mL in 96-well plates (100.000 cells/well, 100 µL/well), using only the 60 inner wells to avoid any border effects. […] Then, the cells were incubated with 100 μL/well of medium and 20 μL/well of CellTiter 96 Aqueous One Solution reagent for 1–3 h. […] The background absorbance was measured in wells with only cell line medium and solution reagent. First, the average of the absorbance from the control wells was subtracted from all other absorbance values. Data were calculated as the percentage of total absorbance of treated cells/absorbance of non-treated cells. The GI50 values of the different compounds were determined using non-linear regression plots made with GraphPad Prism v5 software.

[4] = tested on: ML-2; test: Cell proliferation assay: GI50
Method: as §3

[5] = tested on: MV4-11; test: Cell proliferation assay: GI50
Method: as §3

[6] = tested on: HL-60; test: Cell proliferation assay: GI50; conditions: read-out: GI50
Method: as §3

[7] = tested on: ML-2; test: Differentiation-apoptosis assay, CD11b / annexin-V / Sytox Green / myeloid markers flow cytometry; set-up: Cell viability: concentration or dose not given beside the values; CD11b levels: unit not given here; conditions: for CD11b / Cell viability: ML-2, 48 h, replicates (Fig 4A)
Method: as §1, §2

[8] = tested on: HL-60; test: as above; set-up: Cell viability (%): concentration or dose not given beside the values; CD11b levels: unit not given here; conditions: for CD11b (%) / Cell viability (%): HL-60, 48 h treatment, replicates 1-3 (Suppl. Fig. 5A)
Method: Next, the cells were washed twice with phosphate-buffered saline (PBS) and resuspended in 1X Binding Buffer at a concentration of 1 × 10^6 cells/mL. […] Finally, after the addition of 400 µL of 1X Binding Buffer to each tube, samples were collected on a BD FACSCanto flow cytometer (Becton Dickinson, San Jose, CA, USA) and analyzed using FlowJo software.
Then, 1 million cells (volume of 250 µL) were added and incubated for 30 min at room temperature in darkness. After 10 min incubation at room temperature with 2 mL of FACSLysing 1X, cells were centrifuged at 540 g for 5 min and washed twice with FACSBuffer. Finally, after centrifugation at 540 g for 5 min cells were resuspended in FACSBuffer.

[9] = MOLM-13, replicates 1-3, µM for the other inhibitors
[10] = ML-2, replicates 1-3, µM for the other inhibitors
[11] = MV4-11, replicates 1-3, µM for the other inhibitors
[12] = HL-60, replicates 1-3, µM for the other inhibitors

Structure (SMILES) | CD11b (%) [1] | Cell viability (%) [1] | CD11b (%) [2] | Cell viability (%) [2] | GI50 [3, 9] | GI50 [4, 10] | GI50 [5, 11] | GI50 [6, 12] | CD11b [7] | Cell viability [7] | CD11b (%) [8] | Cell viability (%) [8] | also measured
Nc1ccccc1NC(=O)c1ccc(CNC(=O)OCc2cccnc2)cc1 [Entinostat, reference compound] | 76.1% and 83.2% and 84.3% | 47.7% and 56.4% and 56.1% | 41.0% and 45.6% and 43.2% | 35.1% and 39.2% and 39.7% | 2 µM | 10.9 µM and 9.8 µM | 2.8 µM and 3 µM | 8.3 µM and 7.3 µM | 25.1% and 39.8% and 36.7% | 59.1% and 65.7% and 58.8% | 32.6% and 37.2% and 30.1% | 38.4% and 38.5% and 40.7% | GI50 ([3]; Homo sapiens, MOLM-13, 48 h): 2.4 µM; GI50 ([3]; Homo sapiens, MOLM-13, MOLM-13, replicates 1-3, µM for the other inhibitors): 2.6 µM; GI50 ([4]; Homo sapiens, ML-2, 48 h): 9.1 µM; GI50 ([4]; Homo sapiens, ML-2, ML-2, replicates 1-3, µM for the other inhibitors): 6.6 µM; GI50 ([5]; Homo sapiens, MV4-11, MV4-11, replicates 1-3, µM for the other inhibitors): 3.3 µM; GI50 ([6]; Homo sapiens, HL-60, HL-60, replicates 1-3, µM for the other inhibitors): 7.8 µM
CN1CCc2c(c3ccccc3n2Cc2ccc(C(=O)NO)cc2)C1 [Tubastatin, reference compound] | 29.6% and 36.5% and 39.8% | 74.1% and 65.3% and 78.4% | 9.3% and 10.2% and 12.6% | 89.7% and 84.3% and 92.1% | > 10 µM | > 10 µM | > 10 µM | > 10 µM | 28.3% and 27.1% and 25.0% | 83.1% and 89.7% and 79.2% | 26.8% and 22.6% and 20.1% | 69.4% and 76.8% and 76.1% | GI50 ([3]; MOLM-13, 48 h): > 10 µM; GI50 ([4]; ML-2, 48 h): > 10 µM; GI50 ([5]; MV4-11, 48 h): > 10 µM; GI50 ([6]; HL-60, 48 h): > 10 µM
Cn1cc(CNCC2CCN(c3ncc(C(=O)NO)cn3)CC2)c2ccccc21 [Quisinostat, reference compound] | 55.3% and 50.4% and 58.7% | 64.2% and 57.7% and 56.3% | 16.1% and 10.9% and 10.0% | 83.6% and 79% and 74.7% |  |  |  |  | 35.4% and 25.9% and 25.4% | 86.7% and 75.1% and 77.3% | 36.8% and 39.6% and 35.4% | 84.1% and 72.6% and 75.5% | GI50 ([3]; Homo sapiens, MOLM-13, MOLM-13): 0.067 µM; GI50 ([3]; Homo sapiens, MOLM-13, MOLM-13, replicates 1-3, nM for Panobistat and Quisinostat): 0.0589 µM; GI50 ([3]; MOLM-13, replicates 1-3, nM for Panobistat and Quisinostat): 0.0736 µM and 0.0685 µM; GI50 ([4]; Homo sapiens, ML-2, ML-2): 0.076 µM; GI50 ([4]; Homo sapiens, ML-2, ML-2, replicates 1-3, nM for Panobistat and Quisinostat): 0.0673 µM; GI50 ([4]; ML-2, replicates 1-3, nM for Panobistat and Quisinostat): 0.0895 µM and 0.0712 µM; GI50 ([5]; Homo sapiens, MV4-11, MV4-11): 0.013 µM; GI50 ([5]; MV4-11, replicates 1-3, nM for Panobistat and Quisinostat): 0.0131 µM and 0.0143 µM; GI50 ([6]; HL-60, replicates 1-3, nM for Panobistat and Quisinostat): 0.138 µM and 0.103 µM; GI50 ([6]; Homo sapiens, HL-60, HL-60, replicates 1-3, nM for Panobistat and Quisinostat): 0.0957 µM; GI50 ([6]; Homo sapiens, HL-60, HL-60): 0.112 µM
CCNC(=O)C[C@@H]1N=C(c2ccc(Cl)cc2)c2cc(OC)ccc2-n2c(C)nnc21 [Molibresib, reference compound] |  |  |  |  |  |  |  |  |  |  |  |  | CD11b levels ([1]; MOLM-13, daily treatment for 48 h, replicates 1-3 (Suppl. Fig. 9A)): 13.1 and 10.8 and 12.3; CD11b levels ([2]; MV4-11, daily treatment for 48 h, replicates 1-3 (Suppl. Fig. 9A)): 12.1 and 15.4 and 13.7; CD11b levels ([7]; ML-2 treated daily for 48 h, replicates (Fig 6E)): 15.1 and 13.2 and 11.7; CD11b levels ([8]; HL-60 treated daily for 48 h, replicates (Fig 6D)): 14.6 and 15.6 and 12.7
